We go through 16 molecules from patent publication US9951043B2, “Therapeutic compounds” (Gilead Sciences, Inc., priority 2013, dated 2018).

One data set has as its system HIV-IIIb. As to the kind of experiment: Test A: Antiviral Assay in MT4 Cells. The following applies: MT-4 cells infected with HIV-IIIb, 5 days, calculated from the dose response curve, values above 100 normalized to 100%; for inhibition at 0.2 µM / inhibition at 2 µM: Human immunodeficiency virus 1, IIIB, MT4, 120 h; for inhibition at 0.2 µM: read-out: % inhibition at 0.2 μM (percent inhibition of virus-induced cell killing), 0.2 μM drug concentration; for inhibition at 2 µM: read-out: % inhibition at 2 μM (percent inhibition of virus-induced cell killing), 2 μM drug concentration; for % inhibition at 0.2 μM (percent inhibition of virus-induced cell killing): 0.2 μM drug concentration; for % inhibition at 2 μM (percent inhibition of virus-induced cell killing): 2 μM drug concentration. Format: cell-based, HIV-1. As for the experimental part: Test A: Antiviral Assay in MT4 Cells
(§1) MT-4 cells were next mixed with HIV-IIIb at an m.o.i of 0.003 for 1 hour, after which time 35 μL of virus/cell mixture (2000 cells) was immediately added to each well containing 40 μL of diluted compound. The plates were then incubated at 37° C. for 5 days. […] Cell lysis was carried out by incubating at room temperature for 10 min and then chemiluminescence was read.
The data above represent an average over time of each assay for each compound. […] Thus, the data reported in the tables include the data reported in the priority document, as well as data from assays run in the intervening period.

A short description of data set [1]: Test B: Cytotoxicity Assay. The following applies: human; uninfected MT-4 cells, same protocol as Test A, 5 days. Format: cell-based. As for the experimental part:
as §1
(§2) Test B: Cytotoxicity Assay
(§3) Compound cytotoxicity and the corresponding CC50 values was determined using the same protocol as described in the antiviral assay (Test A) except that uninfected cells were used.

A further data set has as its system uninfected MT-4 cells. As to the kind of experiment: Test B: Cytotoxicity Assay. The data set is classed as cell-based. How it is done: as §1, §2, §3
The mark [2] stands for this setting: uninfected MT-4 cells, same protocol as Test A, 5 days, read-out: CC50.

Read-outs that look alike come from different tables or passages of the source.

What is called CC50 is the concentration that lowers cell viability or growth by half. As for `CC(C)(O)C#Cc1ccc(-c2cccc3c(N)n[nH]c23)c([C@H](Cc2cc(F)cc(F)c2)NC(=O)Cn2nc(C(F)(F)F)c3c2C(F)(F)[C@@H]2C[C@H]32)n1` [Compound 29B, N—((S)-1-(3-(3-amino-1H-indazol-7-yl)-6-(3-hydroxy-3-methylbut-1-yn-1-yl)pyridin-2-yl)-2-(3,5-difluorophenyl)ethyl)-2-((3bS,4aR)-5,5-difluoro-3-(trifluoromethyl)-3b,4,4a,5-tetrahydro-1H-cyclopropa[3,4]cyclopenta[1,2-c]pyrazol-1-yl)acetamide], in the data set with HIV-IIIb, the inhibition at 0.2 µM is 80% and the inhibition at 2 µM was 81%. In data set [1], this molecule came in with a 50% cytotoxic concentration (CC50) at 5 days of 15.3 µM.

As usually defined, the % inhibition is how much of the control response was suppressed. Regarding `CC(C)(O)C#Cc1ccc(-c2cccc3c2CNC3=O)c([C@H](Cc2cc(F)cc(F)c2)NC(=O)Cn2nc(C(F)(F)F)c3c2C(F)(F)[C@@H]2C[C@H]32)n1` [Compound 15, 2-((3bS,4aR)-5,5-difluoro-3-(trifluoromethyl)-3b,4,4a,5-tetrahydro-1H-cyclopropa[3,4]cyclopenta[1,2-c]pyrazol-1-yl)-N—((S)-2-(3,5-difluorophenyl)-1-(6-(3-hydroxy-3-methylbut-1-yn-1-yl)-3-(1-oxoisoindolin-4-yl)pyridin-2-yl)ethyl)acetamide], in the data set with HIV-IIIb, the “% inhibition at 0.2 μM (percent inhibition of virus-induced cell killing)” value is given as 93% and the “% inhibition at 2 μM (percent inhibition of virus-induced cell killing)” value is 94%. Further, the 50% cytotoxic concentration (CC50) in the data set with uninfected MT-4 cells (setting [2]) was 10.3 µM.

On to `CC(C)(O)C#Cc1ccc(-c2ccc(Cl)n3c(NS(C)(=O)=O)nnc23)c([C@H](Cc2cc(F)cc(F)c2)NC(=O)Cn2nc(C(F)F)c3c2C(F)(F)[C@@H]2C[C@H]32)n1` [Compound 110E], for which, in the data set on HIV-IIIb, the “% inhibition at 0.2 μM (percent inhibition of virus-induced cell killing)” value was 15% and the “% inhibition at 2 μM (percent inhibition of virus-induced cell killing)” value was 98%. This molecule returned a CC50 with uninfected MT-4 cells above 53.2 µM.

For the molecule `Cn1nc(N)c2c(C#N)ccc(-c3ccc(C#CC(C)(C)O)nc3[C@H](Cc3cc(F)cc(F)c3)NC(=O)Cn3nc(C(F)F)c4c3C(F)(F)[C@@H]3C[C@H]43)c21` [Compound 77E], in the data set with HIV-IIIb, the “% inhibition at 0.2 μM (percent inhibition of virus-induced cell killing)” value is reported as 96% and the “% inhibition at 2 μM (percent inhibition of virus-induced cell killing)” value is 97%. Half-maximal cytotoxicity with uninfected MT-4 cells (CC50) was put at 11.8 µM.

For the molecule `Cn1nc(N)c2c(Cl)ccc(-c3ccc(C#CC(C)(C)O)nc3[C@H](Cc3cc(F)cc(F)c3)NC(=O)Cn3nc(C(F)(F)F)c4c3C(F)(F)[C@@H]3C[C@H]43)c21` [Compound 55C], in the data set on HIV-IIIb, the “% inhibition at 0.2 μM (percent inhibition of virus-induced cell killing)” value is 92% and the “% inhibition at 2 μM (percent inhibition of virus-induced cell killing)” value is listed as 92%. Moreover, the CC50 in the data set on uninfected MT-4 cells came to 9.56 µM.

`CC(C)(O)C#Cc1ccc(-c2ccc(Cl)n3c(N)nnc23)c([C@H](Cc2cc(F)cc(F)c2)NC(=O)Cn2nc(C(F)F)c3c2C(F)(F)[C@@H]2C[C@H]32)n1` [Compound 106E]: in the data set with HIV-IIIb, the “% inhibition at 0.2 μM (percent inhibition of virus-induced cell killing)” value is 95% and the “% inhibition at 2 μM (percent inhibition of virus-induced cell killing)” value is 96%. For the same molecule, in the data set with uninfected MT-4 cells, the CC50 was determined as 12.4 µM.

“N—((S)-1-(3-(3-chloro-1H-benzofuro[3,2-c]pyrazol-5-yl)-6-(3-hydroxy-3-methylbut-1-yn-1-yl)pyridin-2-yl)-2-(3,5-difluorophenyl)-2-((3bS,4aR)-5,5-difluoro-3-(trifluoromethyl)-3b,4,4a,5-tetrahydro-1H-cyclopropa[3,4]cyclopenta[1,2-c]pyrazol-1-yl)acetamide [Compound 113D]”: the “% inhibition at 2 μM (percent inhibition of virus-induced cell killing)” value in the data set on HIV-IIIb was 97%. For the same molecule, it took 1.09 µM to reach half-maximal cytotoxicity in the data set on uninfected MT-4 cells (CC50).

`Cn1nc(NS(C)(=O)=O)c2c(Cl)ccc(-c3ccc(C#CC(C)(C)O)nc3[C@H](Cc3cccc(F)c3)NC(=O)Cn3nc(C(F)(F)F)c4c3C(F)(F)[C@@H]3C[C@H]43)c21` [Compound 187G, N—((S)-1-(3-(4-chloro-1-methyl-3-(methylsulfonamido)-1H-indazol-7-yl)-6-(3-hydroxy-3-methylbut-1-yn-1-yl)pyridin-2-yl)-2-(3-fluorophenyl)ethyl)-2-((3b,4aR)-5,5-difluoro-3-(trifluoromethyl)-3b,4,4a,5-tetrahydro-1H-cyclopropa[3,4]cyclopenta[1,2-c]pyrazol-1-yl)acetamide]: in the data set on HIV-IIIb, the “% inhibition at 0.2 μM (percent inhibition of virus-induced cell killing)” value is 84% and the “% inhibition at 2 μM (percent inhibition of virus-induced cell killing)” value is listed as 84%. For the same molecule, it took 19.8 µM to reach half-maximal cytotoxicity in the data set on uninfected MT-4 cells (CC50).

With `COc1cc(-c2ccc(Cl)c3c(NS(C)(=O)=O)nn(C)c23)c([C@H](Cc2cc(F)cc(F)c2)NC(=O)Cn2nc(C(F)(F)F)c3c2C(F)(F)[C@@H]2C[C@H]32)nc1C#CC(C)(C)O` [Compound 135B, N—((S)-1-(3-(4-chloro-1-methyl-3-(methylsulfonamido)-1H-indazol-7-yl)-6-(3-hydroxy-3-methylbut-1-yn-1-yl)-5-methoxypyridin-2-yl)-2-(3,5-difluorophenyl)ethyl)-2-((3bS,4aR)-5,5-difluoro-3-(trifluoromethyl)-3b,4,4a,5-tetrahydro-1H-cyclopropa[3,4]cyclopenta[1,2-c]pyrazol-1-yl)acetamide], in the data set with HIV-IIIb, the inhibition at 0.2 µM was 93% and the inhibition at 2 µM was 93%. This molecule also returned a CC50 at 5 days in data set [1] of 14.2 µM.

Regarding `Cn1nc(NS(C)(=O)=O)c2c(Cl)ccc(-c3ccc(C#CC(C)(C)O)nc3[C@H](Cc3cc(F)cc(F)c3)NC(=O)Cn3nc(C4(O)CC4)c4c3CCCC4)c21` [Compound 156E, (S)—N-(1-(3-(4-chloro-1-methyl-3-(methylsulfonamido)-1H-indazol-7-yl)-6-(3-hydroxy-3-methylbut-1-yn-1-yl)pyridin-2-yl)-2-(3,5-difluorophenyl)ethyl)-2-(3-(1-hydroxvcyclopropyl)-4,5,6,7-tetrahydro-1H-indazol-1-yl)acetamide], in the data set on HIV-IIIb, the “% inhibition at 0.2 μM (percent inhibition of virus-induced cell killing)” value is 78% and the “% inhibition at 2 μM (percent inhibition of virus-induced cell killing)” value was 78%. Also, the CC50 in the data set on uninfected MT-4 cells came out at 25.6 µM.

Regarding `Cn1nc(NS(C)(=O)=O)c2c(Cl)ccc(-c3ccc(C#CC(C)(C)N)nc3[C@H](Cc3cc(F)cc(F)c3)NC(=O)Cn3nc(C(F)F)c4c3C(F)(F)[C@@H]3C[C@H]43)c21` [Compound 128B, N—((S)-1-(6-(3-amino-3-methylbut-1-yn-1-yl)-3-(4-chloro-1-methyl-3-(methylsulfonamido)-1H-indazol-7-yl)pyridin-2-yl)-2-(3,5-difluorophenyl)ethyl)-2-((3bS,4aR)-3-(difluoromethyl)-5,5-difluoro-3b,4,4a,5-tetrahydro-1H-cyclopropa[3,4]cyclopenta[1,2-c]pyrazol-1-yl)acetamide], in the data set with HIV-IIIb, the “% inhibition at 0.2 μM (percent inhibition of virus-induced cell killing)” value is on record as 93% and the “% inhibition at 2 μM (percent inhibition of virus-induced cell killing)” value is recorded as 94%. In the data set on uninfected MT-4 cells (setting [2]), the CC50 was found to be 4.18 µM.

In the case of `CC(C)(O)C#Cc1ccc(-c2ccc3nnc(N)n3c2)c([C@H](Cc2cc(F)cc(F)c2)NC(=O)Cn2nc(C(F)F)c3c2C(F)(F)[C@@H]2C[C@H]32)n1` [Compound 105E], in the data set with HIV-IIIb, the “% inhibition at 2 μM (percent inhibition of virus-induced cell killing)” value is listed as 74%. The midpoint of cytotoxicity with uninfected MT-4 cells, the CC50, lay at 31.5 µM.

In turn, `Cn1nc(NS(C)(=O)=O)c2c(Cl)ccc(-c3ccc(-c4ccccn4)nc3[C@H](Cc3cc(F)cc(F)c3)NC(=O)Cn3nc(C(F)(F)F)c4c3C(F)(F)[C@@H]3C[C@H]43)c21` [Compound 172, N—((S)-1-(5-(4-chloro-1-methyl-3-(methylsulfonamido)-1H-indazol-7-yl)-[2,2′-bipyridin]-6-yl)-2-(3,5-difluorophenyl)ethyl)-2-((3bS,4aR)-5,5-difluoro-3-(trifluoromethyl)-3b,4,4a,5-tetrahydro-1H-cyclopropa[3,4]cyclopenta[1,2-c]pyrazol-1-yl)acetamide] displayed a CC50 at 5 days in data set [1] of 0.061 µM.

Consider `COc1ccc(-c2ccc(C#CC(C)(C)O)nc2[C@H](Cc2cc(F)cc(F)c2)NC(=O)Cn2nc(C(F)F)c3c2C(F)(F)[C@@H]2C[C@H]32)c2c1c(N)nn2C` [Compound 114G], for which, in the data set with HIV-IIIb, the “% inhibition at 0.2 μM (percent inhibition of virus-induced cell killing)” value was 100% and the “% inhibition at 2 μM (percent inhibition of virus-induced cell killing)” value was 100%. Besides, the midpoint of cytotoxicity in the data set with uninfected MT-4 cells, the CC50, lay at 14.8 µM.

Take `Cn1nc(NS(C)(=O)=O)c2c(Cl)ccc(-c3ccc(C#CC(C)(C)O)nc3[C@H](Cc3cc(F)cc(F)c3)NC(=O)Cn3nc(N)c4c3C(F)(F)[C@@H]3C[C@H]43)c21` [Compound 148B, 2-((3bS,4aR)-3-amino-5,5-difluoro-3b,4,4a,5-tetrahydro-H-cyclopropa[3,4]cyclopenta[1,2-c]pyrazol-1-yl)-N—((S)-1-(3-(4-chloro-1-methyl-3-(methylsulfonamido)-1H-indazol-7-yl)-6-(3-hydroxy-3-methylbut-1-yn-1-yl)pyridin-2-yl)-2-(3,5-difluorophenyl)ethyl)acetamide]: in the data set with HIV-IIIb, the “% inhibition at 0.2 μM (percent inhibition of virus-induced cell killing)” value is listed as 83% and the “% inhibition at 2 μM (percent inhibition of virus-induced cell killing)” value is 83%. The molecule further came in with a CC50 in the data set on uninfected MT-4 cells of 23.3 µM.

Take `CCNc1nn(C)c2c(-c3ccc(C#CC(C)(C)O)nc3[C@H](Cc3cc(F)cc(F)c3)NC(=O)Cn3nc(C(F)F)c4c3C(F)(F)[C@@H]3C[C@H]43)ccc(Cl)c12` [Compound 91E]: in the data set on HIV-IIIb, the “% inhibition at 0.2 μM (percent inhibition of virus-induced cell killing)” value is 100% and the “% inhibition at 2 μM (percent inhibition of virus-induced cell killing)” value is recorded as 100%. This molecule yielded a 50% cytotoxic concentration (CC50) in the data set on uninfected MT-4 cells of 9.38 µM.
